Test results from patent US7855297B2, “Amide derivatives and medicinal use thereof” (Mitsubishi Tanabe Pharma Corporation, priority 2000, dated 2010).

Experiments:
[1] = system: C5a stimulated neutrophil; assay: Production of reactive oxygen species in C5a stimulated neutrophil; format: cell-based; conditions: human neutrophils, C5a 3 nmol/L, luminol luminescence; read-out: IC50 value, concentration at which production of reactive oxygen species in C5a stimulated neutrophil is inhibited by 50%
Protocol: A neutrophil fraction was separately taken from human peripheral venous blood using Lympholyte-poly (Cedarlane), and suspended in Hank's Balanced Salt Solution (HBSS, GIBCO BRL) containing 1% fetal bovine serum (FBS) and 1 mmol/L of luminol (Wako Pure Chemical Industries, Ltd.). Reactive oxygen species was measured using a luminometer (MicroLumat, Berthold) for 96 well plate. […] Then, 25 μL of C5a (final concentration 3 nmol/L) was added and luminescence produced by the reaction of the luminol and the reactive oxygen species was measured with the lapse of time for 15 min. The rate (% inhibition) of inhibition of the production of reactive oxygen species in C5a stimulated neutrophil by the test compound was calculated by the following formula, wherein the peak value of the production of reactive oxygen species derived by C5a without addition of the test compound is Max, the peak value of the production of reactive oxygen species without addition of the test compound and without C5a stimulation is Min, and the peak value of the production of reactive oxygen species derived by C5a with the addition of the test compound is Test. % Inhibition=100−[(Test-Min)/(Max-Min)]×100 […]

[2] = system: C5a stimulated neutrophil; assay: Increase of intracellular Ca2+ concentration of C5a stimulated neutrophil; format: cell-based; conditions: human neutrophils
Protocol: A neutrophil fraction was separately taken from human peripheral venous blood using Lympholyte-poly (Cedarlane), and suspended in Hank's Balanced Salt Solution (HBSS, GIBCO BRL) supplemented with 1% fetal bovine serum (FBS). Then, Fura 2-AM (final concentration 5 μM, DOJINDO) was added to the neutrophil fraction (5×10^6 cells/mL), and the mixture was incubated at 37° C. for 40 min. The cells were washed by centrifugation and suspended to the concentration of 1×10^6 cells/mL. The intracellular Ca^2+ concentration was measured using a spectrophotofluorometer (CAF-110, JASCO Corporation), and calculated from the ratio (Ex340 value/Ex380 value) of fluorescent intensities at 500 nm upon excitation at 340 nm and 380 nm, the former being Ex340 value, the latter being Ex380 value. […] Then, Triton X-100 (final concentration 0.2%) was added and the cells were dissolved, and sb2 value, which was the […] then, and Rmax value, which was the Ex340 value/Ex380 value then, was measured. Then, EGTA (final concentration 3 mmol/L) was added and sf2 value, which was the […] then, and Rmin value, which was the Ex340/Ex380 value then, was measured. From these measurement results, the intracellular Ca^2+ concentration was calculated from the following formula. […]

IC50 [1]: 10 nM
IC50 ([2]; recombinant human C5a 100 pmol/L, read-out: IC50 value, concentration at which increase in intracellular Ca2+ concentration of C5a-stimulated neutrophil is inhibited by 50%): 5 nM
melting point: 121 °C
Structure (SMILES): CC(C)c1ccc(N(Cc2ccc(N(C)C)cc2)C(=O)C2CCCc3ccccc32)cc1 (stereo not shown) [Example 4, N-[(4-dimethylaminophenyl)methyl]-N-(4-isopropylphenyl)-1,2,3,4-tetrahydronaphthalene-1-carboxamide]
agonistic action (increase in intracellular Ca2+ by the compound alone) ([2]; compound 3 μmol/L): did not induce an increase in intracellular Ca^2+ and the agonistic action was not found
